# Test system: delayed hypersensitivity reaction (pertussis vaccine pleurisy)
# Assay: pertussis vaccine pleurisy test in rats
# Assay type: in vivo, rat (male Sprague-Dawley)
# Conditions: 10 mg/kg p.o.
# From the text: A useful test for the evaluation of the effect of chemical compounds on the immune system is the pertussis vaccine pleurisy test in rats. Compounds which enhance the response in this delayed hypersensitivity reaction are considered to stimulate cell-mediated immunity (4).
# This example illustrates the effect of the compounds of the general formula I in the pertussis vaccine pleurisy test.
# Pertussis vaccine pleurisy is a useful test for the evaluation of the effect of chemical compounds on the immune system. Compounds which enhance the response in this delayed hypersensitivity reaction are considered to stimulate cell-mediated immunity.
# A modification of a method described in (4) was used. Male Sprague-Dawley rats weighing 250-275 g were used. At least ten animals were used in each group.
# Equal volumes of Freund's incomplete adjuvant and a suspension of heat killed Bordetella pertussis organisms were mixed. To sensitize animals, day 0, 0.2 ml of a mixture containing 0.036×10^10 organisms/ml was injected into the dorsal surface of one hind paw and one forepaw.
# The animals were challenged on day 12 with 0.1 ml of a mixture containing 0.25×10^10 organisms/ml that was injected intrapleurally. 48 hours after challenge, day 14, the volume of the exudate in the pleural cavity was measured.
# The substances suspended in aqueous methocel solution 10 ml/kg were given intragastrically once daily from day 10 to day 13. The control groups were given methocel solution 10 ml/kg.
# The effect of the substances was assessed by the exudate volume expressed in percent after comparison with the control groups.
row,SMILES,significant enhancing effect in the pertussis vaccine pleurisy test
1,"Cn1c(=O)c(C(=O)Nc2ccc(O)cc2)c(O)c2ccccc21 [1:13, N-/4-hydroxyphenyl/-1,2-dihydro-4-hydroxy-1-methyl-2-oxo-quinoline-3-carboxamide]",significant enhancing effect
2,"CN(C(=O)c1c(N)c2ccccc2n(C)c1=O)c1ccccc1 [10:5, N-methyl-N-phenyl-4-amino-1,2-dihydro-1-methyl-2-oxo-quinoline-3-carboxamide]",significant enhancing effect
3,"CNc1c(C(=O)N(C)c2ccccc2)c(=O)n(C)c2ccccc12 [10:6, N-methyl-N-phenyl-1,2-dihydro-1-methyl-4-methylamino-2-oxo-quinoline-3-carboxamide]",significant enhancing effect
4,"COc1ccc(N(C)C(=O)c2c(N)c3ccccc3n(C)c2=O)cc1 [10:12, N-(4-methoxyphenyl)-N-methyl-4-amino-1,2-dihydro-1-methyl-2-oxo-quinoline-2-carboxamide]",significant enhancing effect
5,"CN(C(=O)c1c(N)c2ccccc2n(C)c1=O)c1ccc(Cl)cc1 [10:13, N-(4-chlorophenyl)-N-methyl-4-amino-1,2-dihydro-1-methyl-2-oxo-quinoline-3-carboxamide]",significant enhancing effect
6,"CN(C(=O)c1c(N)c2ccccc2n(C)c1=O)c1nccs1 [10:17, N-methyl-N-(2-thiazolyl)-4-amino-1,2-dihydro-1-methyl-2-oxo-quinoline-3-carboxamide]",significant enhancing effect
7,"Nc1c(C(=O)Nc2ccccc2)c(=O)n2c3c(cccc13)CC2 [10:20, N-phenyl-4-amino-1,2-dihydro-1,8-ethylene-2-oxo-quinoline-3-carboxamide]",significant enhancing effect
8,"CN(C(=O)c1c(O)c2cccc3c2n(c1=O)CCC3)c1ccccc1 [19:1, N-methyl-N-phenyl-1,2-dihydro-4-hydroxy-2-oxo-1,8-trimethylene-quinoline-3-carboxamide]",significant enhancing effect
9,"CN(C(=O)c1c(O)c2cccc3c2n(c1=O)CCC3)c1ccc(F)cc1 [19:2, N-(4-fluorophenyl)-N-methyl-1,2-dihydro-hydroxy-2-oxo-1,8-trimethylene-quinoline-3-carboxamide]",significant enhancing effect
10,"C=CCn1c(=O)c(C(=O)N(C)c2ccccc2)c(O)c2ccccc21 [20:1, N-methyl-N-phenyl-1,2-dihydro-1-allyl-4-hydroxy-2-oxo-quinoline-3-carboxamide]",significant enhancing effect
11,"CN(C(=O)c1c(O)c2ccc(Cl)cc2n(C)c1=O)c1ccccc1 [20:2, N-methyl-N-phenyl-7-chloro-1,2-dihydro-4-hydroxy-1-methyl-2-oxo-quinoline-3-carboxamide]",significant enhancing effect
12,"CN(C)c1ccc2c(c1)c(O)c(C(=O)N(C)c1ccccc1)c(=O)n2C [20:3, N-methyl-N-phenyl-1,2-dihydro-6-dimethylamino-4-hydroxy-1-methyl-2-oxo-quinoline-3-carboxamide]",significant enhancing effect
13,"COc1ccc2c(c1)c(O)c(C(=O)N(C)c1ccc(Cl)cc1)c(=O)n2C [20:4, N-(4-chloro-phenyl)-N-methyl-1,2-dihydro-4-hydroxy-6-methoxy-1-methyl-2-oxo-quinoline-3-carboxamide]",significant enhancing effect
14,"CCN(CC)c1ccc(N(C)C(=O)c2c(O)c3ccccc3n(C)c2=O)cc1 [20:20, N-methyl-N-/4-diethylaminophenyl/-1,2-dihydro-4-hydroxy-1-methyl-2-oxo-quinoline-3-carboxamide]",significant enhancing effect
15,"CN(C(=O)c1c(O)c2ccccc2n(C)c1=O)c1ccc(N2CCCC2)cc1 [20:21, N-methyl-N-/4-pyrrolidinophenyl/-1,2-dihydro-4-hydroxy-1-methyl-2-oxo-quinoline-3-carboxamide]",significant enhancing effect
16,"COCCN(C(=O)c1c(O)c2ccccc2n(C)c1=O)c1cnccn1 [20:54, N-(2-methoxy-ethyl)-N-pyrazinyl-1,2-dihydro-4-hydroxy-1-methyl-2-oxo-quinoline-3-carboxamide]",significant enhancing effect
17,"CN(C(=O)c1c(O)c2ccccc2n(C)c1=O)c1ncc[nH]1 [20:74, N-(2-imidazolyl)-N-methyl-1,2-dihydro-4-hydroxy-1-methyl-2-oxo-quinoline-3-carboxamide]",significant enhancing effect
18,"Cc1cc(N(C)C(=O)c2c(O)c3ccccc3n(C)c2=O)sn1 [20:78, N-methyl-N-(3-methyl-5-isothiazolyl)-1,2-dihydro-4-hydroxy-1-methyl-2-oxo-quinoline-3-carboxamide]",significant enhancing effect
19,"CN(C(=O)c1c(O)c2ccccc2n(C)c1=O)c1ccc(C(=O)O)cc1 [21:13, N-(4-carboxyphenyl)-N-methyl-1,2-dihydro-4-hydroxy-1-methyl-2-oxo-quinoline-3-carboxamide]",significant enhancing effect

# Same assay, conditions: Rattus norvegicus, po, 48 h; 10 mg/kg p.o., once daily day 10 to day 13, vs control; preliminary; read-out: Enhancement of the delayed hypersensitivity reaction assessed by the exudate vol.
row,SMILES,change in vivo at 10 mg/kg [%]
1,"Cc1ccc(-n2c(=O)c(C(=O)Nc3ccccc3)c(O)c3ccccc32)cc1 [1:50, N-phenyl-1,2-dihydro-4-hydroxy-1-(4-methylphenyl)-2-oxo-quinoline-3-carboxamide]",46
2,"Cc1cc(NC(=O)c2c(O)c3ccccc3n(C)c2=O)sn1 [7:28, N-(3-methyl-5-isothiazolyl)-1,2-dihydro-4-hydroxy-1-methyl-2-oxo-quinoline-3-carboxamide]",61
3,"CN(C)c1ccc(NC(=O)c2c(O)c3cccc4c3n(c2=O)CCC4)cc1 [13:7, N-(4-dimethylaminophenyl)-1,2-dihydro-4-hydroxy-2-oxo-1,8-trimethylene-quinoline-3-carboxamide]",21
4,"O=C(Nc1cnccn1)c1c(O)c2cccc3c2n(c1=O)CCC3 [14:17, N-pyrazinyl-1,2-dihydro-4-hydroxy-2-oxo-1,8-trimethylene-quinoline-3-carboxamide]",27

# From patent US4738971A, “N-aryl-1,2-dihydro-4-substituted-1-alkyl-2-oxo-quinoline-3-carboxamides” (priority 1981, dated 1988)
